Measured values: patent US20220380314A1, “SUBSTITUTED, SATURATED AND UNSATURATED N-HETEROCYCLIC CARBOXAMIDES AND RELATED COMPOUNDS FOR THEIR USE IN THE TREATMENT OF MEDICAL DISORDERS” (Bial - R&D Investments, S.A., priority 2019, published 2022)
Values after ≈ are worked out from the molar mass of the structure shown. Like-named read-outs stand apart in the source and are kept apart here.

Assays:
[1] = Compound solubility in water; format: physicochemical
[2] = biological target: T1, acid ceramidase (hACR) (Homo sapiens, UniProt Q13510); assay: Acid ceramidase inhibition, biochemical fluorescent assay with cell lysates overexpressing acid ceramidase, substrate Rbm14-12
T1 construct: expressed in transfected cells; cell lysate used
T1 sequence (Q13510 143-395 limits assumed): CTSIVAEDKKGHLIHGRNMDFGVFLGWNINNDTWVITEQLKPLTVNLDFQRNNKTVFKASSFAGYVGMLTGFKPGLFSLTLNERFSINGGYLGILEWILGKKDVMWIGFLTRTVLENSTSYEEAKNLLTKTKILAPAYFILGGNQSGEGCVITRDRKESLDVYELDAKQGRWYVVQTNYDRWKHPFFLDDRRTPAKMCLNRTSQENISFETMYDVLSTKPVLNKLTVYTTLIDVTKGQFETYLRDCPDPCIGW
T1 sequence (Q13510 22-142 limits assumed): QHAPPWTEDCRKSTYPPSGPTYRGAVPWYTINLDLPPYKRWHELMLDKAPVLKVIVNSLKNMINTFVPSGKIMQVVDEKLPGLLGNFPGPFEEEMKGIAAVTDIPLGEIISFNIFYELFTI
Outline: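 Enzyme source was lysate (10 µg protein) from cells overexpressing acid ceramidase, preincubated 1 hr at RT with compound dose series in 25 mM NaAc, 100 mM NaCl, pH 4.5. Rbm14-12 (6.3 μM final) reacted 1 hr at RT; stop buffer (methanol, NaIO4, glycine, pH 10.6) 1 hr, fluorescence ex360/em446; IC50 from four-parameter fit.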

[3] = cell lysates overexpressing acid ceramidase, 1 hr preincubation at RT, pH 4.5, substrate Rbm14-12 6.3 μM, read-out: hACR IC50

| SMILES | solubility [1] [µM] | IC50 [2, 3] [nM] | IC50 [2] [nM] |
| --- | --- | --- | --- |
| O=C(NCCCc1ccccc1)N1CCCCC12CCCC2 [Example 56, N-(3-Phenylpropyl)-6-azaspiro[4.5]decane-6-carboxamide] | 4.9 (≈ 1.47 µg/mL) | < 200 | – |
| O=C(NCCCc1ccccc1)N1CCCC12CCCC2 [Example 57, N-(3-Phenylpropyl)-1-azaspiro[4.4]nonane-1-carboxamide] | 19.4 (≈ 5.56 µg/mL) | > 1000 | – |
| O=C(NCCCc1ccc(F)cc1)N1CCCCC12CCCC2 [Example 58, N-(3-(4-Fluorophenyl)propyl)-6-azaspiro[4.5]decane-6-carboxamide] | 3 (≈ 0.955 µg/mL) | < 200 | – |
| O=C(NCCCc1ccc(F)cc1F)N1CCCCC12CCCC2 [Example 59, N-(3-(2,4-difluorophenyl)propyl)-6-azaspiro[4.5]decane-6-carboxamide] | 1.1 (≈ 0.37 µg/mL) | < 200 | – |
| O=C(NCCCc1ccccc1)N1CCOCC12CCCC2 [Example 60, N-(3-Phenylpropyl)-9-oxa-6-azaspiro[4.5]decane-6-carboxamide] | 25.2 (≈ 7.62 µg/mL) | > 1000 | – |
| CC1(C)CC(F)=CCN1C(=O)NCCCc1ccccc1 [Example 62, 4-fluoro-2,2-dimethyl-N-(3-phenylpropyl)-3,6-dihydropyridine-1(2H)-carboxamide] | 15 (≈ 4.36 µg/mL) | > 1000 | – |
| CN(C(=O)NCCCc1ccccc1)C12CCC(CC1)CC2 [Example 63, 1-(Bicyclo[2.2.2]octan-1-yl)-1-methyl-3-(3-phenylpropyl)urea] | 3.1 (≈ 0.931 µg/mL) | < 200 | – |
| CN(C(=O)NCCCc1ccccc1)C1CN2CCC1CC2 (centres unmarked) [Example 64, 1-Methyl-3-(3-phenylpropyl)-1-(quinuclidin-3-yl)urea] | 35.4 (≈ 10.7 µg/mL) | > 1000 | – |
| CN1CC(c2ccc3c(c2)N(C(=O)NCc2ccccc2)C(C)(C)CC3)C1 [Example 65, N-benzyl-2,2-dimethyl-7-(1-methylazetidin-3-yl)-3,4-dihydroquinoline-1(2H)-carboxamide] | 40.2 (≈ 14.6 µg/mL) | 200 to 1000 | – |
| CN1CC(c2cccc3c2CCC(C)(C)N3C(=O)NCc2ccccc2)C1 [Example 66, N-Benzyl-2,2-dimethyl-5-(1-methylazetidin-3-yl)-3,4-dihydroquinoline-1(2H)-carboxamide] | 38.5 (≈ 14 µg/mL) | 200 to 1000 | – |
| CC1(C)Cc2ccccc2N1C(=O)NCCc1ccccc1 [Example 67, 2,2-Dimethyl-N-phenethylindoline-1-carboxamide] | 8.3 (≈ 2.44 µg/mL) | > 1000 | – |
| COc1cccc2c1N(C(=O)NCCc1ccccc1)C(C)(C)CC2 [Example 68, 8-Methoxy-2,2-dimethyl-N-phenethyl-3,4-dihydroquinoline-1(2H)-carboxamide] | 8.2 (≈ 2.78 µg/mL) | < 200 | – |
| CC1(C)CC(F)(F)CCN1C(=O)NCCCC1(C(F)(F)F)CC1 [Example 72, 4,4-Difluoro-2,2-dimethyl-N-(3-(1-(trifluoromethyl)cyclopropyl)propyl)piperidine-1-carboxamide] | 21.4 (≈ 7.33 µg/mL) | 200 to 1000 | – |
| CC1(C)CC(F)=CCN1C(=O)NCCCC1(C(F)(F)F)CC1 [Example 73, 4-fluoro-2,2-Dimethyl-N-(3-(1-(trifluoromethyl)cyclopropyl)propyl)-3,6-dihydropyridine-1(2H)-carboxamide] | 4.3 (≈ 1.39 µg/mL) | > 1000 | – |
| CCOCCNC(=O)N1CCC(c2ccccc2)CC1(C)C (centres unmarked) [Example 77, N-(2-Ethoxyethyl)-2,2-dimethyl-4-phenylpiperidine-1-carboxamide] | 64.3 (≈ 19.6 µg/mL) | > 1000 | – |
| CC1(C)CC(c2ccccn2)CCN1C(=O)NCCCCc1ccccc1 (centres unmarked) [Example 79, 2,2-Dimethyl-N-(4-phenylbutyl)-4-(2-pyridyl)piperidine-1-carboxamide] | 6.4 (≈ 2.34 µg/mL) | > 1000 | – |
| CC1(C)CC(N2CCC(F)(F)CC2)CCN1C(=O)NCCCCc1ccccc1 (centres unmarked) [Example 86, 4-(4,4-Difluoro-1-piperidyl)-2,2-dimethyl-N-(4-phenylbutyl)piperidine-1-carboxamide] | 31 (≈ 12.6 µg/mL) | < 200 | – |
| CN(c1ccccc1)C1CCN(C(=O)NCCCCc2ccccc2)C(C)(C)C1.Cl (centres unmarked) [Example 88, 2,2-Dimethyl-4-(N-methylanilino)-N-(4-phenylbutyl)piperidine-1-carboxamide hydrochloride] | 0.01 | > 1000 | – |
| CC1(C)CC(Oc2ccccc2)CCN1C(=O)NCCCCc1ccccc1 (centres unmarked) [Example 89, 2,2-Dimethyl-4-phenoxy-N-(4-phenylbutyl)piperidine-1-carboxamide] | 0.01 (≈ 0.00381 µg/mL) | < 200 | – |
| CCCCCNC(=O)N1[C@H](C)CN(C2CC2)C[C@@H]1C [Example 115, (2S,6R)-4-cyclopropyl-2,6-dimethyl-N-pentylpiperazine-1-carboxamide] | 69.1 (≈ 18.5 µg/mL) | < 200 | – |
| CCCCCNC(=O)N1C(c2ccc(F)cc2)COCC1(C)C (centres unmarked) [Example 137, 5-(4-Fluorophenyl)-3,3-dimethyl-N-pentylmorpholine-4-carboxamide] | 93 (≈ 30 µg/mL) | < 200 | – |
| COc1ccc(C2COCC(C)(C)N2C(=O)NCC2CCOCC2)cc1 (centres unmarked) [Example 145, 5-(4-Methoxyphenyl)-3,3-dimethyl-N-(tetrahydropyran-4-ylmethyl)morpholine-4-carboxamide] | 91.3 (≈ 33.1 µg/mL) | – | 200 to 1000 |
| COc1ccc(C2COCC(C)(C)N2C(=O)NCCC(F)(F)F)cc1 (centres unmarked) [Example 153, 5-(4-Methoxyphenyl)-3,3-dimethyl-N-(3,3,3-trifluoropropyl)morpholine-4-carboxamide] | 79.2 (≈ 28.5 µg/mL) | 200 to 1000 | – |
| CCCCCNC(=O)N1C(c2ccc(OC)cc2)COCC1(C)C (centres unmarked) [Example 156, 5-(4-Methoxyphenyl)-3,3-dimethyl-N-pentylmorpholine-4-carboxamide] | 91 (≈ 30.4 µg/mL) | < 200 | – |
| COc1ccc(C2COCC(C)(C)N2C(=O)NCCOCC2CC2)cc1 (centres unmarked) [Example 157, N-[2-(Cyclopropylmethoxy)ethyl]-5-(4-methoxyphenyl)-3,3-dimethylmorpholine-4-carboxamide] | > 100 | < 200 | – |

Second part, led by results:

| solubility [1] [µM] | IC50 [2, 3] [nM] | SMILES | IC50 [2] [nM] |
| --- | --- | --- | --- |
| 0.4 (≈ 0.135 µg/mL) | < 200 | CC1(C)CC(c2ccccc2)CCN1C(=O)NCCc1ccccc1 (centres unmarked) [Example 55, 2,2-Dimethyl-N-phenethyl-4-phenylpipridine-1-carboxamide] | – |
| 25.7 (≈ 7.98 µg/mL) | < 200 | CC1(C)CC(F)(F)CCN1C(=O)NCCCc1ccccc1 [Example 61, 4,4-Difluoro-2,2-dimethyl-N-(3-phenylpropyl)piperidine-1-carboxamide] | – |
| 35.5 (≈ 15.4 µg/mL) | > 1000 | CN1CC(N2CC(c3ccc4c(c3)N(C(=O)NCCc3ccccc3)C(C)(C)CC4)C2)C1 [Example 69, 2,2-Dimethyl-7-(1′-methyl-[1,3′-biazetidin]-3-yl)-N-phenethyl-3,4-dihydroquinoline-1(2H)-carboxamide] | – |
| 15.6 (≈ 6.33 µg/mL) | 200 to 1000 | CC(=O)N1CC(c2ccc3c(c2)N(C(=O)NCCc2ccccc2)C(C)(C)CC3)C1 [Example 70, 7-(1-Acetylazetidin-3-yl)-2,2-dimethyl-N-phenethyl-3,4-dihydroquinoline-1(2H)-carboxamide] | – |
| 5.9 (≈ 1.96 µg/mL) | 200 to 1000 | CN(C(=O)NCCCC1(C(F)(F)F)CC1)C12CCC(CC1)CC2 [Example 71, 1-(Bicyclo[2.2.2]octan-1-yl)-1-methyl-3-(3-(1-(trifluoromethyl)cyclopropyl)propyl)urea] | – |
| 0.2 (≈ 0.0729 µg/mL) | < 200 | CC1(C)CC(c2ccccc2)CCN1C(=O)NCCCCc1ccccc1 (centres unmarked) [Example 74, 2,2-Dimethyl-4-phenyl-N-(4-phenylbutyl)piperidine-1-carboxamide] | – |
| 7.1 (≈ 2.6 µg/mL) | > 1000 | CC1(C)CC(c2ccccc2)CCN1C(=O)NCCOCc1ccccc1 (centres unmarked) [Example 75, N-(2-Benzyloxyethyl)-2,2-dimethyl-4-phenylpiperidine-1-carboxamide] | – |
| > 100 | < 200 | CC1(C)CC(N2CCCCC2)CCN1C(=O)NCCCCc1ccccc1 (centres unmarked) [Example 83, 2,2-Dimethyl-N-(4-phenylbutyl)-4-(1-piperidyl)piperidine-1-carboxamide] | – |
| 88.3 (≈ 21.4 µg/mL) | < 200 | CCCCCNC(=O)N1C(C)COCC1(C)C (centres unmarked) [Example 132, 3,3,5-Trimethyl-N-pentylmorpholine-4-carboxamide] | – |
| 97.8 (≈ 31.1 µg/mL) | < 200 | COc1ccc(C2COCC(C)(C)N2C(=O)NCC2CC2)cc1 (centres unmarked) [Example 144, N-(Cyclopropylmethyl)-5-(4-methoxyphenyl)-3,3-dimethylmorpholine-4-carboxamide] | – |
| 92.9 (≈ 28.8 µg/mL) | 200 to 1000 | COc1ccc(C2COCC(C)(C)N2C(=O)NCCF)cc1 (centres unmarked) [Example 154, N-(2-Fluoroethyl)-5-(4-methoxyphenyl)-3,3-dimethylmorpholine-4-carboxamide] | – |
| 71.6 (≈ 27.2 µg/mL) | < 200 | CN1CC(c2ccccc2)N(C(=O)NCCCCc2ccccc2)C(C)(C)C1 (centres unmarked) [Example 165, 2,2,4-Trimethyl-6-phenyl-N-(4-phenylbutyl)piperazine-1-carboxamide] | – |
